Assay results published in PMC6193951, “Intra- and inter-protein couplings of backbone motions underlie protein thiol-disulfide exchange cascade” (Scientific Reports, 2018).
Numbering of substitutions follows the chain as printed. Numbers in names are those of the source.

Experiments:
[1] = molecular target: T1, B. subtilis ArsC (Bs_ArsC), reduced state re-ArsC (Bacillus subtilis, UniProt P45947); assay: isothermal titration calorimetry; format: binding
T1 construct: full-length, 139 residues; recombinant, prepared as previously reported; reduced state (C10, C82, C89 free thiols)
T1 sequence (P45947 1-139): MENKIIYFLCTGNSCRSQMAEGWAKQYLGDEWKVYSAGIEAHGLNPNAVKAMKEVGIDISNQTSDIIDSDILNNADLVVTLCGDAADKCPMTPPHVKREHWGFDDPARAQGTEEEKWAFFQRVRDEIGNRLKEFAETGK

[2] = molecular target: T2, B. subtilis arsenate reductase ArsC_C10SC15AC82S mutant (ArsC in the Trx-complexed state) (B. subtilis, UniProt P45947 1-139, C10S | C15A | C82S, C89 forms an intermolecular disulfide bond with Trx (C89^ArsC-C29^Trx); 15N-labeled in one sample, unlabeled in the other); assay: preparation of a mixed-disulfide complex (DTNB incubation), studied by NMR (15N CPMG RD, CEST); Trx_C32S and ArsC_C10SC15AC82S linked by an intermolecular disulfide with the 5,5-dithiobis(2-nitrobenzoic acid) incubation protocol; NMR samples in 20 mM Tris-HCl (pH 6.85), 40 mM KCl, 20 mM urea, 20 mM Na2SO4; 25 °C; details: both partners purified
T2 construct: Thioredoxin-coupled arsenate reductase ArsC, Bacillus subtilis; triple mutant C10S/C15A/C82S used to trap the mixed-disulfide complex; also called c-ArsC; source: purity greater than 95% by SDS-PAGE
T2 sequence: T1 sequence (P45947 1-139) with C10S, C15A, C82S

O=S(=O)(O)O [sulfate]
Kd [1]: 700 µM

B1: B. subtilis thioredoxin Trx_C32S mutant (Trx in the ArsC-complexed state) (enzyme)
chain: MAIVKATDQSFSAETSEGVVLADFWAPWCGPSKMIAPVLEELDQEMGDKLKIVKIDVDENQETAGKYGVMSIPTLLVLKDGEVVETSVGFKPKEALQELVNKHL
modifications: C29 in the mixed disulfide with ArsC C89 (C89^ArsC-C29^Trx); 15N-labeled in one sample, unlabeled in the other
notes: Thioredoxin (Trx), Bacillus subtilis; C32S mutant used to trap the mixed-disulfide complex; also called c-Trx; source: purity greater than 95% by SDS-PAGE
binding result [2]: binds
